Results as given in patent US20250381149A1, “CATIONIC AMPHIPHILIC COMPOUND-BASED NANOPARTICLE COMPOSITIONS” (Universiteit Gent, priority 2022, published 2025).
Structures can show the parent of a compound that is named as a salt.

Assay: Self-assembly of CAD with DOPE (50:50) into vesicles, ethanol dilution or lipid film hydration
Assay type: physicochemical
Settings: CAD:DOPE 50:50
Experimental: Preparation of CAD-DOPE nanoparticles. […] The lipids DOTAP (1,2-dioleoyl-3-trimethylammonium-propane) and DOPE (1,2-dioleoyl-sn-glycero-3-phosphoethanolamine) were purchased from Avanti Polar Lipids (Alabaster, USA).
For the ethanol dilution (ED) method, CADs (10 mg/ml) and DOPE (25 mg/ml) were separately dissolved in absolute ethanol. […] For the lipid film hydration method CAD (10 mg/ml) and DOPE (25 mg/ml) were dissolved in chloroform (50:50 mol ratio) and transferred to a brown glass vial, followed by chloroform evaporation under nitrogen flow. […] The classically used cationic DOTAP-DOPE liposomes (50:50 mol ratio) were likewise prepared via lipid film hydration, as previously reported in literature and diluted in HEPES buffer (pH 7.4, 20 mM) to obtain a final lipid concentration of 3.9 mM. Hydrodynamic diameter, polydispersity index (PDI) and zeta-potential of all formulations were determined via dynamic light scattering (DLS) (Zetasizer Nano, Malvern Instruments, Worcestershire, United Kingdom).

Row | Compound | vesicle formation with DOPE
1 | Clc1ccc2c(c1)CCc1cccnc1C2=C1CCNCC1 [Desloratadine] | successful vesicle formation
2 | CN1CCC(=C2c3ccccc3CC(=O)c3sccc32)CC1 [Ketotifen] | did not self-assemble with DOPE
3 | CN(C)CCCN1c2ccccc2CCc2ccccc21 [Imipramine hydrochloride] | successful vesicle formation
4 | CNCCCN1c2ccccc2CCc2ccccc21 [Desipramine hydrochloride] | successful vesicle formation
5 | NC1=NCC2c3ccccc3Cc3ccccc3N12 (stereo not drawn) [Epinastine] | did not self-assemble with DOPE
6 | CN(C)CCC=C1c2ccccc2CCc2ccccc21 [Amitriptyline hydrochloride] | successful vesicle formation
